Experimental data: the NIST ThermoML archive (doi:10.1021/je900387e)

Test: xn = mol fraction of the nth substance listed
Details: Liquid, Pycnometric method

Cn1ccnc1 [1-methylimidazole] + O=C=O
Details	mass density [kg/m3]
313.1 K, 11200 kPa, x1 = 0.0247	802
313.1 K, 11280 kPa, x1 = 0.0487	852
313.1 K, 11440 kPa, x1 = 0.0487	855
313.1 K, 11540 kPa, x1 = 0.0102	771
313.1 K, 11540 kPa, x1 = 0.1024	928
313.1 K, 11580 kPa, x1 = 0.0247	811
313.1 K, 11620 kPa, x1 = 0.0487	858
313.1 K, 11740 kPa, x1 = 0.1024	930
313.1 K, 11790 kPa, x1 = 0.0487	860
313.1 K, 11980 kPa, x1 = 0.0487	862
313.1 K, 11990 kPa, x1 = 0.1024	933
313.1 K, 12000 kPa, x1 = 0.0247	819
313.1 K, 12070 kPa, x1 = 0.0102	786
313.1 K, 12180 kPa, x1 = 0.0487	865
313.1 K, 12320 kPa, x1 = 0.1024	936
313.1 K, 12490 kPa, x1 = 0.0247	828
313.1 K, 12620 kPa, x1 = 0.1024	939
313.1 K, 12700 kPa, x1 = 0.0102	800
313.1 K, 12970 kPa, x1 = 0.1024	942
313.1 K, 13010 kPa, x1 = 0.0247	837
313.1 K, 13280 kPa, x1 = 0.1024	944
313.1 K, 13460 kPa, x1 = 0.0102	816
313.1 K, 13600 kPa, x1 = 0.0247	846
313.1 K, 13660 kPa, x1 = 0.1024	947
313.1 K, 14020 kPa, x1 = 0.1024	950
313.1 K, 14280 kPa, x1 = 0.0247	855
313.1 K, 14340 kPa, x1 = 0.0102	832
313.1 K, 14430 kPa, x1 = 0.1024	954
313.1 K, 14780 kPa, x1 = 0.1024	956
313.1 K, 14970 kPa, x1 = 0.0247	865
313.1 K, 15010 kPa, x1 = 0.0102	842
313.1 K, 15210 kPa, x1 = 0.1024	959
313.1 K, 15360 kPa, x1 = 0.0247	870
313.1 K, 15650 kPa, x1 = 0.1024	963
313.1 K, 15790 kPa, x1 = 0.0247	875
313.1 K, 16150 kPa, x1 = 0.1024	966
313.1 K, 16220 kPa, x1 = 0.0247	880
313.1 K, 16560 kPa, x1 = 0.1024	969
313.1 K, 16690 kPa, x1 = 0.0247	885
313.1 K, 17100 kPa, x1 = 0.1024	972
313.1 K, 17540 kPa, x1 = 0.1024	975
313.1 K, 18150 kPa, x1 = 0.1024	979
313.1 K, 18570 kPa, x1 = 0.1024	981
313.1 K, 18940 kPa, x1 = 0.1024	983
317.9 K, 9730 kPa, x1 = 0.0102	555
317.9 K, 9780 kPa, x1 = 0.0102	563
317.9 K, 9850 kPa, x1 = 0.0102	573
317.9 K, 9910 kPa, x1 = 0.0102	583
317.9 K, 9990 kPa, x1 = 0.0102	594
317.9 K, 10080 kPa, x1 = 0.0102	606
317.9 K, 10180 kPa, x1 = 0.0102	618
317.9 K, 10180 kPa, x1 = 0.0247	708
317.9 K, 10300 kPa, x1 = 0.0102	630
317.9 K, 10340 kPa, x1 = 0.0247	716
317.9 K, 10440 kPa, x1 = 0.0102	643
317.9 K, 10490 kPa, x1 = 0.0247	723
317.9 K, 10620 kPa, x1 = 0.0102	656
317.9 K, 10640 kPa, x1 = 0.0247	730
317.9 K, 10810 kPa, x1 = 0.0102	670
317.9 K, 10810 kPa, x1 = 0.0247	737
317.9 K, 11000 kPa, x1 = 0.0247	744
317.9 K, 11050 kPa, x1 = 0.0102	684
317.9 K, 11220 kPa, x1 = 0.0247	751
317.9 K, 11330 kPa, x1 = 0.0102	699
317.9 K, 11460 kPa, x1 = 0.0247	758
317.9 K, 11510 kPa, x1 = 0.0487	815
317.9 K, 11590 kPa, x1 = 0.0487	817
317.9 K, 11680 kPa, x1 = 0.0102	715
317.9 K, 11700 kPa, x1 = 0.0487	820
317.9 K, 11710 kPa, x1 = 0.0247	766
317.9 K, 11820 kPa, x1 = 0.0487	822
